Reference: patent US20080146555A1, “Uses of Kinase Inhibitors and Compositions Thereof” (GPC Biotech, Inc, priority 2004, published 2008)
Where a name gives a salt, the structure may show the parent alone. Read-outs that look alike come from different tables or passages of the source.

How the values were obtained:
[1] = system: normal human fibroblast, IMR90; experiment: Calcein AM viability assay, IMR90; assay type: cell-based; details: IMR-90, text b600
Procedure: The potency of the subject kinase inhibitors, as measured by loss of cellular viability, was determined with the Calcein AM assay (Molecular Probes). Calcein AM is a substrate of intracellular esterases, which is cleaved only in viable cells to generate a fluorescent product that can be quantified with a fluorescent plate reader. The fluorescent signal is proportional to the number of viable cells, and thus loss of signal in response to the exposure of cells to the subject kinase inhibitors correlates with a loss of viability. This assay not only distinguishes cell cycle arrest, in which cells may still by viable, from loss of viability, and is thus well suited for the evaluation of the subject kinase inhibitors. A compound that is a potent cytotoxic agent may cause significant loss of cell viability in such an assay.
Cellular IC50's were determined in the human colorectal carcinoma cell line, HCT-116, and the normal human fibroblast, IMR90. Protein adjusted IC50's were also determined in HCT-116. Results of such viability assays are presented in Table 2 (HCT-116 (viability/protein adjusted) and IMR-90). IC50's (μM, non-protein adjusted) for the viability assay against HCT-116 cells are shown for further compounds of the invention in Table 4.
HCT-116 or IMR90 cells were recovered from sub-confluent plates by trypsinization and 1,000 or 4,000 cells, respectively, were plated in 24-well dishes and incubated overnight at 37° C., 5% CO2. HCT-116 cells were cultured in RPMI-1640, 10% FCS, and IMR90 cells were cultured in Minimum Essential Medium-alpha, 10% FCS. After overnight incubation to allow adherence, the media was aspirated from each well and replaced with media containing a test compound at a concentration from 0 to 250 nM, spanning a total of 7 doses. The plates were returned to the incubator and cultured for an additional 72 hours (3 days). […] After 72-hours incubation with the test compound, the cells were washed twice with 1×PBS, taking special care to remove all residual buffer.
A 5 μM Calcein AM solution was prepared by dissolving a 50 μg aliquot of Calcein (Molecular Probes catalog #C3100) in 50 μl DMSO. After the Calcein had completely dissolved (10 minutes at room temperature), it was diluted into 10 ml PBS. Calcein/PBS (0.5 ml) was added to each well. The plates were incubated for 75 minutes at 37° C. (protected from light) and the fluorescent signal was read on a fluorescent plate reader (excitation 485/20 and emission 530/25).

MKK6 = biological target: T1, MKK6 (Homo sapiens, UniProt P52564); experiment: MKK6 kinase assay; assay type: biochemical
T1 construct: purchased Upstate 14-303
T1 sequence (P52564 1-334): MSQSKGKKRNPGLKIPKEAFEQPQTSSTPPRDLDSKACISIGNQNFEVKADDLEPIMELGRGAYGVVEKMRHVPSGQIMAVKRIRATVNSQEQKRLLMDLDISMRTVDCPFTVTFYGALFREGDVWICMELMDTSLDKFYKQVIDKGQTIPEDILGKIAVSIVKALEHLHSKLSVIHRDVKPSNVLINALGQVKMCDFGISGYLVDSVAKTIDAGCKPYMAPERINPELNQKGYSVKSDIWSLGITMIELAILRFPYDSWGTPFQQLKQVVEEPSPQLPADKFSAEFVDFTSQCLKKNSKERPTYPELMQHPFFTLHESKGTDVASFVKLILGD
Procedure: • 1. Reaction Buffer (RB): 50 mM Tris-HCl, pH 7.5, 0.1 mM EGTA, 0.1% 2-mercaptoethanol, 0.1 mM sodium orthovanadate, 10 mM MgAc. • 2. Magnesium/ATP Cocktail (Catalog #20-113): 500 μM cold ATP and 75 mM magnesium chloride in 20 mM MOPS, pH 7.2, 25 mM β-glycerol phosphate, 5 mM EGTA, 1 mM sodium orthovanadate, 1 mM dithiothreitol. • 3. MKK6/SKK3, active: Dilute to 10 ng/μl with Reaction Buffer containing 0.03% Brij-35. Use 5 μl (50 ng) per assay point. • 4. p38a/SAPK2a, unactive (Catalog #14-252): Use 4 μl per assay point. • 5. Myelin Basic Protein (MBP, Catalog #13-104): Prepare a 2 mg/ml stock solution in 20 mM MOPS, pH 7.2, 25 mM β-glycerol phosphate, 5 mM EGTA, 1 mM sodium orthovanadate, 1 mM dithiothreitol. Use 10 μl per assay point. • 6. [γ-^32P]ATP: Stock 1 mCi/100 μl (3000 Ci/mmol, obtained from Perkin Elmer, Catalog #BLU002A). Make 10 μl aliquots (100 μCi/vial). Before starting the assay, dilute the Magnesium/ATP Cocktail 1:1 with sterile, distilled water. Then dilute an aliquot of [γ-^32P]ATP to 1 μCi/μl with 90 μl of the diluted Magnesium/ATP Cocktail. […]
• 1. On ice, add 1 μl RB to a microcentrifuge tube. • 2. Add 4 μl (2 μg) p38α/SAPK2a, unactive. • 3. Add 10 μl of Magnesium/ATP Cocktail. • 4. Add 5 μl (50 ng) MKK6/SKK3, active. • 5. Incubate for 30 minutes shaking at 30° C. • 6. Place on ice and proceed to Stage Two.
• 1. Remove 10 μL of the mixture prepared in Stage One and add to a new microcentrifuge tube. • 2. Add 20 μl of RB. • 3. Add 10 μl of MBP. • 4. Add 10 μl of the diluted [γ-^32P] ATP mixture (1 μCi/μl). • 5. Incubate for 15 minutes shaking at 30° C. • 6. Spot 40 μl on a 2 cm×2 cm P81 paper. • 7. Wash assay squares three times with 0.75% phosphoric acid for 5 minutes per wash. • 8. Wash assay squares once with acetone for five minutes. • 9. Transfer the assay squares to a scintillation vial and add 5 ml scintillation cocktail. • 10. Read in scintillation counter. Compare cpm of enzyme samples to cpm of control samples that contain no active enzyme (background control).

[2] = kinase panel, 10 μM ATP, read-out: MAPK 6 / MKK6 IC50
[3] = read-out: MAP2K6 Inhibition (IC50)

Row | Structure (SMILES) | IC50 [1] | IC50 (MKK6; [2]) | IC50 (MKK6; [3])
1 | COCCN1CCN(Cc2ccc(-c3n[nH]c4c3C(=O)c3c(NC(=O)NN5CCOCC5)cccc3-4)cc2)CC1 [Compound B16, N-[3-(4-{[4-(2-methoxyethyl)piperazinyl]methyl}phenyl)-4-oxoindeno[2,3-d]pyrazol-5-yl](morpholin-4-ylamino)carboxamide dihydrochloride] | < 100 nM | < 100 nM | < 100 nM
2 | CC(C)N1CCN(C(=O)COc2ccc(-c3n[nH]c4c3C(=O)c3c(NC(=O)NN5CCOCC5)cccc3-4)cc2)CC1 [Compound A37] | < 50 nM | 10 to 100 nM | < 500 nM
